Test results from patent US5804576A, “Derivatives of 5-androsten-17-ones and 5-androstan-17-ones” (Research Corporation Technologies, Inc., priority 1986, dated 1998).
Where two headings read alike, the source gives them in different places.

Experiments:
[1] = tested on: Epstein-Barr virus-induced transformation of human lymphocytes; details: cited from earlier work
[2] = tested on: mammalian glucose-6-phosphate dehydrogenase (G6PDH); details: cited from earlier work
[3] = tested on: 3H-thymidine incorporation in mouse epidermis; details: in vivo; cited from earlier work
mouse breast epithilum = details: in vivo; cited from earlier work
[4] = tested on: TPA stimulation in DNA synthesis rate (mouse epidermis); test: Inhibition of TPA stimulation of mouse epidermal DNA synthesis, intraperitoneal; type: in vivo, mouse (ICR male); details: i.p. dose-response
Description: (§1) ICR male mice (7-9 weeks old) were shaved on the back 1-2 days before use. Only mice showing no hair regrowth were used. Animals were orally intubated with a particular steroid suspended by homogenization in sesame oil or with sesame oil alone (controls). One hour later TPA (10 μg in 0.2 ml of acetone) or acetone vehicle was applied topically to the shaved skin. Twenty hours later, mice were injected i.p. with 60 μCi of ^3 H-thymidine 20 minutes before sacrifice. The animals were killed by cervical dislocation and the residual hair was removed with a depilatory agent. Epidermal scrapings were prepared according to the procedures of Hennings et al. (Cancer Res. 28, 53, 1968), homogenized in distilled water at 4° C., and the macromolecules precipitated with 0.4N trichloroacetic acid (TCA). Following 6 washes with absolute ethanol at room temperature, the nucleic acids were hydrolyzed with 0.5N TCA at 70° C. for 5 minutes. The hydrolysate (0.2 ml aliquots) were counted in an Intertechnique scintillation counter and assayed for DNA by the diphenylamine reaction.
(§2) The data are expressed as counts per minute (cpm) of tritium per μg of DNA.
Compound 2 or 3 in comparison with DHEA by Intraperitoneal Injection.
Steroids were suspended in sterile 95% saline--5% Emulphor and injected intraperitoneally. Otherwise conditions were the same as when steroids were orally administered.

[5] = Anti-obesity test (body weight, food consumption); type: in vivo, mouse (male A/J); details: n = 5
Description: Male A/J mice (5 weeks old) were obtained from the Jackson Laboratory and were housed in polycarbonate cages (5 mice/cage) in animal quarters maintained at 24°±1° C. with 12 hours of light and 12 hours of darkness each day. One week after arrival, the mice were placed on a chow diet containing varying concentrations of DHEA or other steroid. Animals were weighed weekly; food consumption was determined weekly by subtracting the amount of food remaining in the cage from the amount added.
Male A/J (5 weeks old) were obtained from the Jackson Laboratory and were housed in polycarbonate cages (5 mice/cage) in animal quarters maintained at 24°±1° C. with 12 hours of light and 12 hours of darkness each day. One week after arrival, the mice were placed on a diet containing either DHEA, 19, or without steroid. Animals were weighed weekly. The concentration of DHEA or 19 used in the food was 0.54%.
Male A/J mice (5 weeks old) were obtained from the Jackson Laboratory and were housed in polycarbonate cages (5 mice/cage) in animal quarters maintained at 24°±1° C. with 12 hours of light and 12 hours of darkness each day. One week after arrival, the mice were placed on a show diet containing DHEA, 16, or 21 at 0.36%. Animals were weighed weekly.

rat uterus = test: Uterotrophic test, subcutaneous (Compound 2 vs. DHEA); type: in vivo; details: for Mean Uterine Weight: n = 4 or 5
Description: Twenty-two day old rats were obtained from Charles River Laboratories. Animals were used at 29 days of age. Test steroids were suspended by homogenization in sesame oil. Rats were orally intubated at 1-2 P.M. for 3 days with a test steroid in sesame oil or with sesame oil alone (control). On the 4th day the animals were killed and the uteri were removed and weighed.
Compound 2 vs. DHEA. Compounds Administered by Subcutaneous Injection
Steroids were dissolved in 2 ml ethanol and brought up to 5 ml volume with propylene glycol. Concentrations were such that 1 μl/gm body weight delivered the indicated dose.

[6] = target: T1, purified bovine adrenal G6PDH (Bos taurus, UniProt F1MMK2); test: Inhibition of purified bovine adrenal G6PDH; type: biochemical; details: read-out: Percent Inhibition (G6PDH); for inhibition at 0.1 µM: Conc. 0.1 μm; for inhibition at 1 µM: Conc. 1 μm; for inhibition at 10 µM: Conc. 10 μm
T1 construct: full-length, wild type, no tag
Excerpt: The compounds listed below are screened as inhibitors of purified bovine adrenal G6PDH activity as one predictor of cancer preventive action. The assay for testing the inhibition of purified bovine adrenal G6PDH is according to the procedure by Oertel, G. W. and Rebelein, I. in Biochem. Biophys. Acta, 184, 459-460 (1969). The results are given below in Table I:
Both of the above tests, i.e., the inhibition of mammalian glucose-6-phosphate dehydrogenase (G6PDH) and the inhibition of tumor promoter (TPA) stimulation of ^3 H-thymidine incorporation in mouse epidermis are recognized as indicators of cancer prophylactic activity. The following Table compares the efficacy of representative compounds of the present invention in these two tests with that of DHEA: […]

[7] = tested on: TPA (Tumor Promoter) Stimulation of Mouse Epidermal DNA; test: Inhibition of TPA stimulation of mouse epidermal DNA synthesis (3H-thymidine incorporation), oral; type: in vivo, mouse (ICR male)
Excerpt: Synthesis rate by orally administered steroids.
The inhibition of tumor promoter stimulation of mouse epidermal DNA synthesis rate by steroids may also contribute to cancer preventive activity. The following assay is used:
as §1, §2
A similar oral dose-response experiment with compound 16 and DHEA was performed.
Both of the above tests, i.e., the inhibition of mammalian glucose-6-phosphate dehydrogenase (G6PDH) and the inhibition of tumor promoter (TPA) stimulation of ^3 H-thymidine incorporation in mouse epidermis are recognized as indicators of cancer prophylactic activity. The following Table compares the efficacy of representative compounds of the present invention in these two tests with that of DHEA:
(§3) Male ICR mice were orally intubated with steroid suspended in sesame oil (0.5 ml/mouse) at the indicated dose. Mice not receiving steroid were given sesame oil alone. One hour later mice received topical application of TPA and 20 hours later the rate of ^3 H-thymidine incorporation into the epidermis was determined as described in Table 4.
as §3, with “TPA,” for “TPA”

T1 sequence (F1MMK2 31-70): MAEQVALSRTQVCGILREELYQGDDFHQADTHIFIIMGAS
T1 sequence (F1MMK2 101-575): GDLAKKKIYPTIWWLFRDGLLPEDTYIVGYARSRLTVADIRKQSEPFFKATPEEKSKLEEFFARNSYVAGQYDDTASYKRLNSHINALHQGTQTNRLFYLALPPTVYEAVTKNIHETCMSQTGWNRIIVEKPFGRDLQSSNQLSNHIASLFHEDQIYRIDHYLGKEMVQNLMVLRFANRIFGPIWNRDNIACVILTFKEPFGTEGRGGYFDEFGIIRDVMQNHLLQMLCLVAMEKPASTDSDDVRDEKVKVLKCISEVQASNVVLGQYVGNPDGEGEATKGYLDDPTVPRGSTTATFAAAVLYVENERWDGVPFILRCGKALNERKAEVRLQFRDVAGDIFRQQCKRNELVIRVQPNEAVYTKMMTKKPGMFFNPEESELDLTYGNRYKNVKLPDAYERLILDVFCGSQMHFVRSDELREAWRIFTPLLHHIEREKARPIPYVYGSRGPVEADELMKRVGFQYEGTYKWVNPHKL

Row | Compound | blocking the TPA stimulation in DNA synthesis rate, compared with DHEA (in words) [4] | mean weekly weight ([5]; 0.35% of diet, week 0) [grams] | mean weekly weight ([5]; 0.35% of diet, week 1) [grams] | mean weekly weight ([5]; 0.35% of diet, week 2) [grams] | mean weekly weight ([5]; 0.35% of diet, week 3) [grams] | mean weekly weight ([5]; 0.35% of diet, week 4) [grams] | mean weekly weight ([5]; 0.35% of diet, week 5) [grams] | mean weekly weight ([5]; 0.7% of diet, week 0) [grams] | mean weekly weight ([5]; 0.7% of diet, week 1) [grams] | mean weekly weight ([5]; 0.7% of diet, week 2) [grams] | mean weekly weight ([5]; 0.7% of diet, week 3) [grams] | mean weekly weight ([5]; 0.7% of diet, week 4) [grams] | mean weekly weight ([5]; 0.7% of diet, week 5) [grams] | inhibition at 0.1 µM [6] [%] | inhibition at 1 µM [6] [%] | inhibition at 10 µM [6] [%] | also measured
1 | C[C@]12CC[C@H](O)C[C@@H]1CC[C@@H]1[C@@H]2CC[C@]2(C)C(=O)[C@H](Br)C[C@@H]12 [16α-bromo-epiandrosterone, 3β-hydroxy-16α-bromo-5α-androstan-17-one] |  |  |  |  |  |  |  |  |  |  |  |  |  |  |  |  | inhibition of Epstein-Barr virus-induced transformation (in words) [1]: inhibitors of Epstein-Barr virus-induced transformation of human lymphocytes; inhibition of mammalian G6PDH (in words) [2]: more potent inhibitor of mammalian G6PDH than DHEA; inhibition of mammalian G6PDH (in words) ([2]; listed as 16α-Br-epiandrosterone): more active than DHEA in inhibiting G6PDH; 3H-thymidine incorporation in mouse epidermis (in words) [3]: more active than DHEA; rate of [3H] thymidine incorporation into breast epithelium (in words) (mouse breast epithilum): more active than DHEA
2 | C[C@]12CC[C@H](O)C[C@@H]1CC[C@@H]1[C@@H]2CC[C@]2(C)C(=O)CC[C@@H]12 [Compound 2] | about as active as DHEA | 21.8 ± 1.6 | 21.8 ± 1.3 | 22.0 ± 1.2 | 22.8 ± 1.3 | 24.2 ± 1.1 | 24.4 ± 1.7 | 21.3 ± 1.8 | 20.6 ± 2.3 | 20.6 ± 0.5 | 20.8 ± 0.8 | 22.6 ± 0.6 | 22.4 ± 0.5 | 36 | 64 | 82 | mean weekly weight ([5]; 0.35% of diet, week 6): 24.8 ± 1.5 grams; mean weekly weight ([5]; 0.35% of diet, week 7): 25.4 ± 1.7 grams; mean weekly weight ([5]; 0.7% of diet, week 6): 23.5 ± 0.9 grams; mean weekly weight ([5]; 0.7% of diet, week 7): 23.8 ± 0.8 grams; Mean Uterine Weight (rat uterus; 10 mg/kg s.c.): 151 ± 32 Mgs; Mean Uterine Weight (rat uterus; 60 mg/kg s.c.): 127 ± 32 Mgs; estrogenic activity (in words) (rat uterus; rat uterotrophic test, s.c.): Neither compounds 16 nor 2 are estrogenic; blocking the TPA stimulation in DNA synthesis rate (in words) ([7]; 200 mg/kg or 100 mg/kg oral): not active at 200 mg/kg or 100 mg/kg
3 | C[C@]12CCCC[C@@H]1CC[C@@H]1[C@@H]2CC[C@]2(C)C(=O)CC[C@@H]12 [Compound 3] | more active in blocking the TPA stimulation in DNA synthesis rate | 21.8 ± 2.2 | 22.6 ± 1.8 | 23.6 ± 1.8 | 24.8 ± 1.8 | 24.6 ± 1.8 | 24.8 ± 1.9 | 21.6 ± 2.6 | 20.0 ± 1.9 | 21.3 ± 1.8 | 21.8 ± 1.6 | 22.0 ± 1.6 | 21.4 ± 1.1 | 10 | 69 | 80 | activity compared with DHEA, TPA stimulation (in words) ([7]; 200 mg/kg oral): somewhat more active than DHEA
